ChEMBL document CHEMBL4387733, “Design, synthesis and biological evaluation of indane derived GPR40 agoPAMs” (Bioorg Med Chem Lett, 2019)
pEC50: −log10 of the molar value. Active and inactive are the calls of the source. No cut-off for these calls is given here.

Key:
[1] = target: T1, Free fatty acid receptor 1 (Homo sapiens, UniProt O14842); test: Positive allosteric modulation of recombinant human GPR40 expressed in HEK293 cells assessed as increase in [3H]-myo-inositol phosphate accumulation measured after 60 mins in presence of 100% human serum by microbeta counting method relative to control; assay type: functional, cell-based
[2] = target: T1, Free fatty acid receptor 1; test: Positive allosteric modulation of recombinant human GPR40 expressed in HEK293 cells assessed as increase in [3H]-myo-inositol phosphate accumulation measured after 60 mins in absence of human serum by microbeta counting method relative to control; assay type: functional, cell-based; design: concentration or dose not given beside the values
[3] = target: T1, Free fatty acid receptor 1; test: Positive allosteric modulation of recombinant human GPR40 expressed in HEK293 cells assessed as increase in [3H]-myo-inositol phosphate accumulation measured after 60 mins in presence of 100% human serum by microbeta counting method; assay type: functional, cell-based
[4] = target: T1, Free fatty acid receptor 1; test: Positive allosteric modulation of recombinant human GPR40 expressed in HEK293 cells assessed as increase in [3H]-myo-inositol phosphate accumulation measured after 60 mins in absence of human serum by microbeta counting method; assay type: functional, cell-based
[5] = Protein binding in human plasma assessed as unbound fraction level; assay type: ADME, cell-free
[6] = Unbound drug level in Wistar Han rat plasma at 1 mg/kg, iv or 2 mg/kg, po measured at 3 hrs; assay type: ADME, organism-based; details: in vivo
[7] = Total drug level in Wistar Han rat plasma at 1 mg/kg, iv or 2 mg/kg, po measured at 3 hrs; assay type: ADME, organism-based
[8] = Cmax in Wistar Han rat at 1 mg/kg, iv or 2 mg/kg, po; assay type: ADME, organism-based; details: in vivo
[9] = Oral bioavailability in Wistar Han rat at 2 mg/kg; assay type: ADME, organism-based; details: in vivo
[10] = Half-life in Wistar Han rat at 1 mg/kg, iv or 2 mg/kg, po; assay type: ADME, organism-based; details: in vivo
[11] = Volume of distribution in Wistar Han rat at 1 mg/kg, iv or 2 mg/kg, po; assay type: ADME, organism-based; details: in vivo
[12] = Dose normalized AUC in Wistar Han rat at 2 mg/kg, po; assay type: ADME, organism-based; details: in vivo
[13] = Clearance in Wistar Han rat at 1 mg/kg, iv or 2 mg/kg, po; assay type: ADME, organism-based; details: in vivo
Rattus norvegicus [14] = test: Hypoglycemic activity in Sprague-Dawley rat assessed as reduction in blood glucose AUC at 3 mg/kg, ip measured after 3 hrs by IPGTT relative to control; assay type: functional
[15] = Drug level in Wistar Han rat assessed as unbound fraction at 1 mg/kg, iv or 2 mg/kg, po; assay type: ADME, organism-based; details: in vivo
Rattus norvegicus [16] = test: Hypoglycemic activity in Sprague-Dawley rat assessed as reduction in blood glucose AUC at 10 mg/kg, po pretreated for 1 hr followed by glucose challenge by OGTT relative to control; assay type: functional; design: scale not given: the % may be the effect or the level left
Rattus norvegicus [17] = test: Hypoglycemic activity in Sprague-Dawley rat assessed as reduction in blood glucose AUC at 0.3 mg/kg, po pretreated for 1 hr followed by glucose challenge by OGTT relative to control; assay type: functional

T1 sequence (O14842 whole entry): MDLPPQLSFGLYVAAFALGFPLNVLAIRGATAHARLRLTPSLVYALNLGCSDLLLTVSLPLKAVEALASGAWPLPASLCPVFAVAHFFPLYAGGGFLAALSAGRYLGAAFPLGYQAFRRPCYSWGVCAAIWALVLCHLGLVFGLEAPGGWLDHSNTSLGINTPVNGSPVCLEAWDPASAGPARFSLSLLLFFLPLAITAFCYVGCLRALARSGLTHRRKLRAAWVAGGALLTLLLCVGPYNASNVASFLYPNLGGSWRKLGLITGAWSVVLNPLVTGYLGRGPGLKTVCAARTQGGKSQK

Row | SMILES | Activity [1] | Activity [2] | pEC50 [3] | fEC50 [3] | pEC50 [4] | Fu [5] | Cp(f) [6] | concentration at 3 h [7] | Cmax [8] | bioavailability [9] | half-life [10] | Vd [11] | AUC/dose [12] | clearance [13] | inhibition in vivo at 3 mg/kg (Rattus norvegicus [14]) | Fu [15] | Activity (Rattus norvegicus [16]) | Activity (Rattus norvegicus [17])
1 | COc1ccc(F)c(-c2ccc3c(c2)CC[C@H]3Oc2cccc([C@@H](CC(=O)O)C3CC3)c2)c1 | 131% | 352% | 5.23 | 3.7 nM | – | – | – | – | – | – | – | – | – | – | – | – | – | –
2 | COc1ccc(F)c(-c2ccc3c(n2)CC[C@H]3Oc2cccc([C@H](C3CC3)[C@H](C)C(=O)O)c2)c1 | – | 366% | < 5.00 | – | 6.82 | – | – | – | – | – | – | – | – | – | – | – | – | –
3 | COc1ccc(F)c(-c2ccc3c(c2)CC[C@H]3Oc2cccc([C@H](C3CC3)[C@H](C)C(=O)O)c2F)c1 | 264% | 395% | 6.90 | 0.03 nM | 8.52 | 0.02% | 0.5 nM | 2500 nM | 2900 nM | > 100% | 3.1 h | 0.85 L/kg | 9.3 µM·h | 2.8 mL/min/kg | 10% | 0.02% | – | –
4 | COc1ccc(F)c(-c2cc(F)c3c(c2)CC[C@H]3Oc2cccc([C@@H](CC(=O)O)C3CC3)c2)c1 | – | 224% | < 5.00 | – | – | – | – | – | – | – | – | – | – | – | – | – | – | –
5 | COc1ccc(F)c(-c2ccc3c(c2F)CC[C@H]3Oc2cccc([C@H](C3CC3)[C@H](C)C(=O)O)c2)c1 | 297% | 352% | 6.09 | 0.32 nM | 8.41 | – | – | – | – | – | – | – | – | – | – | – | – | –
6 | COc1cc(-c2ccc3c(c2)CC[C@H]3Oc2cccc([C@H](C3CC3)[C@H](C)C(=O)O)c2)c(F)cn1 | 446% | 472% | 6.06 | 0.26 nM | 8.52 | 0.03% | 0.57 nM | 1900 nM | 10700 nM | 54% | 3.9 h | 0.18 L/kg | 99.9 µM·h | 0.6 mL/min/kg | 94% | 0.03% | – | –
7 | O=C1NC(=O)C(C2CCOc3cc(Oc4ccc(C(F)(F)F)cc4Cl)ccc32)S1 (stereo not drawn) | – | – | – | – | – | – | – | – | – | – | – | – | – | – | – | – | 97% | –
8 | COc1cc(-c2ccc3c(c2)CC[C@H]3Oc2cccc([C@H](C3CC3)[C@H](C)C(=O)O)c2F)c(F)cn1 | 318% | 342% | 6.61 | 0.08 nM | 8.70 | 0.05% | 0.3 nM | 600 nM | 6300 nM | > 100% | 5.1 h | 0.78 L/kg | 36.2 µM·h | 2.9 mL/min/kg | 49% | 0.05% | – | –
9 | COc1ccc(F)c(-c2ccc3c(c2)CC[C@H]3Oc2cccc([C@H](C3CC3)[C@@H](C)C(=O)O)c2)c1 | – | 377% | < 5.00 | – | 7.23 | – | – | – | – | – | – | – | – | – | – | – | – | –
10 | COc1cc(-c2ccc3c(c2)CC[C@H]3Oc2cccc([C@H](C3CC3)[C@H](C)C(=O)O)c2)ccn1 | 372% | 448% | 5.45 | 3.2 nM | 7.96 | 0.04% | – | – | – | – | – | – | – | – | – | – | – | –
11 | Cc1cc(OCCCS(C)(=O)=O)cc(C)c1-c1cccc(COc2ccc3c(c2)OC[C@H]3CC(=O)O)c1 | – | – | – | – | – | – | – | – | – | – | – | – | – | – | – | – | – | Active
